Entries after “also recorded” stand apart in the source; their conditions may differ. Where no end group is shown, it is not given here.
Tests used:
[1] = MTT cytotoxicity assay in three cell lines (Example 2); assay type: cell-based, human, mouse; settings: HEK293, HepG2 and 4T1 cells; blank nanoparticles and pDNA complexes, even at higher N/P ratios
Method: (§1) Cell culture: Both HEK293 and HepG2 cell lines were cultured in high glucose DMEM medium supplemented with 10% fetal bovine serum (FBS), 100 μg/mL penicillin, and 100 μg/mL streptomycin at 37° C. in a humidified 5% carbon dioxide incubator. 4T1 cell line was also cultured with the same condition as the other cell lines, but in RPMI 1640 growth medium supplemented with 10 mM HEPES.
Cytotoxicity assay: The cytotoxicity of AK27, AK32, AK27/pDNA and AK32/pDNA complexes were all measured using the standard MTT assay protocol. Briefly, HEK293, HepG2 and 4T1 cell lines were seeded onto 96-well plates at 10,000 cells/well, 8,000 cells/well, and 6,000 cells/well seeding density, respectively. Post cell-seeding, the cells were incubated for one day before being used for cytotoxicity assay. For cytotoxicity assay with AK27/pDNA, complexes at N/P ratios of 1, 10, 20, 30, 35, 40, 45 and 50 were prepared in phosphate buffer (pH 6.5) as described earlier. […] After homogenizing the solution, 100 μL of the samples was spectrophotometrically read in a microplate reader (Biorad) at 550 nm and 690 nm wavelength. The relative cell viability was measured as ([Abs550]sample−[Abs690]sample)/([Abs550]control−[Abs690]control)×100%.

[2] = Zeta potential measurement (Example 2); assay type: physicochemical; settings: N/P ratio 40; phosphate buffer pH 6.5
Method: Particle size and Zeta potential measurement: The particle size and zeta potential of the complexes were measured by dynamic light scattering (Brookhaven Instrument Corp., Holtsville, N.Y., U.S.A.) and using Zetasizer (Malvern Instrument Ltd., Worchestershire, UK), respectively. Briefly, AK27/pDNA and AK32/pDNA complexes were formed in phosphate buffer (pH 6.5) at room temperature at different N/P ratios (i.e. 1, 10, 20, 30 and 40). All the particle size measurements were performed with a light source of 677 nm wavelength and 15° constant angle. The particle size measurement was repeated for 5 runs for each sample, and the data was reported as the effective mean diameter. The zeta potential measurement was repeated for 3 runs per samples, and the data was calculated automatically using the software from the electrophoretic mobility based on the Smoluchowski's formula.

[3] = test system: HEK293 cell line; assay: In vitro luciferase gene expression in HEK293 (Example 2); assay type: cell-based, human
Method: as §1
(§2) In vitro gene expression: HEK293, HepG2, and 4T1 cells were seeded onto 24-well plates at 80,000, 80,000 and 50,000 cells/well, respectively, using the same growth medium and conditions as described previously. After one day, the cells achieved about 70-80% confluence, at which transfection experiments were performed. Briefly, peptide/pDNA complexes were prepared at N/P 1, 10, 20, 30, 35, 40, 45 and 50, and different pH in either sodium acetate buffer (pH 5) or phosphate buffer (pH 6.5 and 7.4). The transfection pH was firstly optimized using HEK293 cell lines and AK27 peptide. […] The total amount of DNA loaded was kept constant at 2.5 μg/well. Cells were allowed to incubate with serum and antibiotics-supplemented growth medium (500 μL/well), onto which the complex solutions (50 μL/well) were added. After four hours following the incubation with the complexes, the medium was then replaced with the fresh one. […] The relative light units (RLU) were measured using a luminometer (Lumat LB9507, Berthold, Germany). […]

[4] = test system: HEK293, HepG2 and 4T1 cell lines; assay: In vitro luciferase gene expression, three cell lines (Example 2); assay type: cell-based, human, mouse; settings: for luciferase gene expression level compared with PEI at N/P 10: general, three cell lines
Method: as §1
In vitro gene expression: HEK293, HepG2, and 4T1 cells were seeded onto 24-well plates at 80,000, 80,000 and 50,000 cells/well, respectively, using the same growth medium and conditions as described previously. After one day, the cells achieved about 70-80% confluence, at which transfection experiments were performed. Briefly, peptide/pDNA complexes were prepared at N/P 1, 10, 20, 30, 35, 40, 45 and 50, and different pH in either sodium acetate buffer (pH 5) or phosphate buffer (pH 6.5 and 7.4). The transfection pH was firstly optimized using HEK293 cell lines and AK27 peptide. […] The total amount of DNA loaded was kept constant at 2.5 μg/well. Cells were allowed to incubate with serum and antibiotics-supplemented growth medium (500 μL/well), onto which the complex solutions (50 μL/well) were added. After four hours following the incubation with the complexes, the medium was then replaced with the fresh one. After 68 hours, the culture medium was removed, and the cells were washed with 0.5 mL of PBS (pH 7.4). 0.2 mL of reporter lysis buffer (Promega, Madison, Wis.) was then added to each well to lyse the cells. The cell suspension was next subjected to two cycles of freezing and thawing, and was centrifuged at 14,000 rpm for 5 minutes. 20 μL of the supernatant of the cell lysate was mixed with 100 μL of luciferase substrate (Promega). The relative light units (RLU) were measured using a luminometer (Lumat LB9507, Berthold, Germany). The luciferase activity was normalized to protein content using the BCA protein assay (Sigma). In all these experiments, both naked DNA-transfected cells and PEI-transfected cells were used as negative and positive controls, respectively. […]

[5] = Critical micelle concentration (CMC) measurement with pyrene; assay type: physicochemical; settings: PBS (pH 7.4)
Method: Critical micelle concentration (CMC) measurement: The CMC of the peptide amphiphile was measured using pyrene as the probe fluorescence molecule. A series of peptide solutions was prepared at various concentrations (0.01 to 2000 mg/L) in PBS. When excited at 337 nm wavelength, the electrons in the pyrene molecules absorb energy, and in turn, emit photons at wavelengths between 350-450 nm, as indicated by five emission peaks in the pyrene fluorescence spectrum (30). At the concentration of amphiphile above its CMC, when the amphiphile forms core/shell structured nanoparticles having a hydrophobic core and a hydrophilic shell, the pyrene molecules aggregate and are solubilized into the core giving […] intensity of the third peak in the emission spectrum. Therefore, monitoring the intensity of the third peak of pyrene's emission spectra, usually normalized to the first peak's intensity, provides a means to estimate the transition concentration (i.e. CMC) of the amphiphile aggregation.
The inflection point gives an estimate of CMC of AK27 in PBS (pH 7.4), which was approximately 120 mg/L.

[6] = test system: pDNA; assay: Gel retardation assay (Example 2); assay type: binding; settings: PBS; N/P 1 to 10
Method: Complex formation of peptide amphiphiles with DNA: Complexes were formed at different N/P ratios by directly mixing equal volume of peptide and plasmid DNA (pDNA) solutions to achieve the intended N/P ratio, which measured the relative molar content of nitrogen atoms (N) in each peptide molecule to that of the phosphate groups (P) in each pDNA molecule, and was calculated based on the standardized 3 μgDNA/nmole DNA rule of thumb as described previously (31). To allow for complete electrostatic interaction between peptide and pDNA molecules, the solution was equilibrated at room temperature for 30 minutes upon mixing before being used for further studies.
Gel retardation assay: Various formulations of AK27/pDNA and AK32/pDNA complexes, ranging from N/P ratios of 1 to 10, were prepared in PBS. Post-equilibration, the complexes were electrophoresed on 1% agarose gel (stained with 4 μL of 0.5 μg/ml ethidium bromide per 50 mL of gel) in 0.5×TBE buffer at 80 V for 60 minutes. The gel was then analysed on a UV illuminator (Chemi Genius, Evolve, Singapore) to show the position of the complexed pDNA relative to that of the non-complexed form.
DNA binding: Gel retardation assays of the two peptide-based amphiphiles were performed to qualitatively study the electrostatic interaction between the peptide and pDNA.

[7] = test system: 4T1 cell line; assay: In vitro luciferase gene expression in 4T1 (Example 2); assay type: cell-based, mouse; settings: PEI N/P 10, pH 6.5
Method: as §1, §2

[8] = test system: HepG2 cell line; assay: In vitro luciferase gene expression in HepG2 (Example 2); assay type: cell-based, human; settings: PEI N/P 10, pH 6.5
Method: as §1, §2

| Sequence | viability at 4 h [1] | highest zeta potential of peptide/pDNA complexes [2] | optimum complexation pH for transfection ([3]; pH 5, 6.5 and 7.4 tested) | highest luciferase expression level compared with PEI ([4]; at N/P ratio of 45, PEI N/P 10) | luciferase gene expression level compared with PEI at N/P 10 [4] | CMC [5] | N/P ratio for complete retardation of DNA [6] | highest luciferase expression level compared with PEI [7] | highest luciferase expression level compared with PEI ([3]; PEI N/P 10, pH 6.5) | highest luciferase expression level compared with PEI [8] |
| --- | --- | --- | --- | --- | --- | --- | --- | --- | --- | --- |
| AAAAAAAAAAAAHHHHHKKKKKKKKKK [AK27, (A)12(H)5(K)10] | > 80% | approximately 7.8±1.1 mV | around 6.5 | about one order of magnitude lower | an order of magnitude less | approximately 120 mg/L | 3 |  |  |  |
| AAAAAAAAAAAAHHHHHKKKKKKKKKKKKKKK [AK32, (A)12(H)5(K)15] | > 80% | ~18.2±0.5 mV |  |  | almost comparable |  | 2 | less than an order of magnitude lower | comparable to that provided by PEI; also recorded: comparable to that yielded by PEI | comparable to that provided by PEI; also recorded: comparable to that yielded by PEI |

— patent US20100286069A1, “CATIONIC PEPTIDE FOR DELIVERING AN AGENT INTO A CELL” (priority 2007, published 2010)
